Measured values taken from patent US20080275036A1, “Prevention and treatment of cardiac conditions” (APT Pharmaceuticals, Inc., priority 2007, published 2008).
“Also recorded” adds a separate entry of the source. Where two headings read alike, the source gives them in different places.

Assays:
[1] = system: single guinea-pig ventricular myocytes; assay: Action potential recording in single guinea-pig ventricular myocytes; format: cell-based; settings: for action potential duration (effect in words): superfused 10 to 30 minutes
Experimental: Myocytes were isolated after perfusion of the heart with a physiological salt solution containing reduced calcium and 0.8 mg/mL of collagenase Type 1 (Worthington Biochemicals).
Action potentials were recorded from single guinea-pig ventricular myocytes using the standard control conditions and criteria as adopted by CCTT Ltd. (see http://www.cctt.ltd.uk/ap1.htm). Briefly, action potentials were recorded using conventional glass microelectrodes filled with 1 M KMeSO4 and 10 mM KCl. Electrode resistances were in the range of 40 to 60 MΩ. An Axoclamp 2B (Axon Instruments Inc) amplifier was used for electrical recording. Action potentials were continuously stimulated by application of a brief (1-2 ms) current stimuli applied via the intracellular microelectrode in ‘bridge’ mode. Following penetration of the cell with the microelectrode, a stabilisation period of at least 5 min was allowed before recordings were started. The frequency of stimulation was 1 Hz. Recorded signals were digitised at a sampling frequency of 5 kHz and stored for subsequent off line analysis. Action potential signals were continuously monitored online using an oscilloscope (Tektronix digital storage oscilloscope) to check for development of effects of dexrazoxane. All recordings are made at 36±1° C.
The stability of several parameters of the action potential profile (resting potential, action potential amplitude and action potential duration) was ensured before recordings were commenced. Resting potential was measured over a 5-10 ms period before the stimulus artefact and values for the resting potential falling between −75 to −85 mV were taken as normal. Action potential amplitude was measured following the stimulus artefact and values falling between 110 to 130 mV were taken as normal.
All data are presented as mean ±SEM. The effect of dexrazoxane on action potential characteristics was assessed using Student's t-test (MicroSoft Excel) and P<0.05 was taken to indicate statistical significance.
Action potential duration was measured from the peak amplitude of the action potential to 90% repolarisation level (APD90), and values for APD90 falling between 150 to 300 ms were taken as normal. Parameters measured in this study were action potential duration at 40, and 90% repolarisation levels (APD40 and APD90) using Clampfit 9.0.
For each cell, APD40 and APD90 values were calculated in the absence (control) and presence of a drug. As an index of ‘Triangulation’ APD90-APD40, (APD90-40 ms) in the absence (APD90-40 control) and presence of dexrazoxane (APD90-40 drug) were calculated. This was normalised to the starting (control) APD90 to express APD90-40 duration as a % of control APD90. Calculations were made for each cell individually; the values for each drug concentration were then averaged.

[2] = system: Langendorff heart preparations; assay: Heart rate variability after total flow occlusion in stable Langendorff heart preparations; settings: 10 μM, 30 min
[3] = system: isolated, perfused guinea pig heart; assay: Perfusion of doxorubicin and dexrazoxane in the isolated, perfused guinea pig heart (Langendorff); settings: for % change in MAP duration / % change in QTc / Cardiac rate / Cor flow / LV dp/dt max / LV dpdt (relax) / LV peak systolic pressure / LVEDP / MAP Duration / QTcF: 30 min of perfusion
Experimental: Perfusion studies of doxorubicin and dexrazoxane in the isolated, perfused guinea pig heart were performed similarly as above. The following parameters were recorded continuously: electrocardiogram (ECG), monophasic action potentials (MAP), perfusion pressure, left ventricular pressure and coronary flow. These effects could be related to some modifications of cardiac electrophysiology (changes in PR, QRS, QT and RR intervals, proarrhythmic effects, Torsade de pointes . . . ), of coronary resistance and/or of cardiac contraction or inotropism (contractility or relaxation troubles).
Stock solutions (10^−2M, 3×10^−2M) in H20 for each drug were prepared each day of the experiment and a dilution (1/1000) done in the perfusion buffer in order to get the appropriate concentrations:
The buffer used in the experiment was KREBS-[…] buffer (Sigma K-3753) to which was added sodium bicarbonate (Sigma S5761) 25 mM and calcium chloride dihydrate (Sigma C8106) 1.8 mM.
The ECG (2 electrodes: on the apex and closed to the right auricular) and the MAP (electrode on the epicardium) were recorded. PR, QRS, QT and RR were measured and QTc (Fridericia; QTc=QT/(RR) ⅓ in ms) was calculated.
The coronary flow (mL/min) is indicated by the perfusion pump. In this model, the perfusion pressure was constant.
Diastolic pressure (mmHg), systolic pressure (mmHg), differential pressure (syst-diast) (mmHg), mean pressure (mmHg), dP/dt min (mmHg/sec) dP/dt max (mmHg/sec) and cardiac frequency (beat per minute: BPM) were measured. A modification of the inotropism can be a problem of cardiac contractility (if modified systolic pressure and dP/dt max) or relaxation (if modified diastolic pressure and dP/dt min). From the left ventricular pressure, the following were calculated: heart rate (frequency of cardiac contractions), dP/dt min and dP/dt max. An acquisition unit MP150WSW with Acknowledge software (Biopac, USA) was used to continuously record all the signals (perfusion pressure, coronary flow, left ventricular pressure, ECG and MAP) through a PC computer. In each group (n=4 hearts), increasing concentrations of compound were infused according to the following design:
For each group, the data are expressed as mean ±S.E.M, % of variation compared to D0 and delta variation from D0. PR, QRS, QT and RR are measured on the same period but on a signal which results from 5 cycles.
On all the curves, the mean value is measured on 30 seconds in the last minute of perfusion for the following parameters: […]

[4] = system: isolated guinea pig myocytes; assay: Calcium transients in isolated guinea pig myocytes; format: cell-based; settings: for calcium transients (effect in words): over the tested concentrations
Experimental: Calcium transients were measured during activation in isolated guinea pig myocytes. […] This increase in calcium transient without an action potential increase indicates an effect on calcium cycling proteins.

[5] = system: isolated guinea pig myocytes; assay: Action potential properties in isolated guinea pig myocytes; format: cell-based; settings: for action potential duration (effect in words): over the tested concentrations
[6] = cited from earlier work
[7] = cited from earlier work; remark: listed apart in the source
[8] = system: single ventricular myocytes; assay: Unloaded cell shortening (UCS) of single ventricular myocytes; settings: 10 μM
[9] = doxorubicin perfusion, 30 minute time point

## C[C@@H](CN1CC(=O)NC(=O)C1)N1CC(=O)NC(=O)C1 [Dexrazoxane, (S)-4,4′-(1-methyl-1,2-ethanediyl)bis-2,6-piperazinedione]
[1]; 10 μM in superfusion solution, n=3, P<0.005
  decrease in APD40: 18±4%
[1]; 10 μM superfusion
  APD90-40 duration (index of triangulation): did not significantly alter
[1]; 10 μM, 27 minutes, control 212±9 ms
  action potential duration (APD90): 168 ± 12 ms
[1]; 10 μM, perfusion 27 minutes, n=4, P<0.005
  shortening of APD90: 18±3%
[1]; 10 μM
  action potential duration (effect in words): shortened action potential duration
[1]; 10 μM, listed as dexrazoxane
  action potential duration (effect in words): shortened action potential duration; also recorded: caused shortening of action potential duration
[1]; 10 μM, control 175±8 ms
  APD40: 136 ± 15 ms
[2]; control 2.9±0.2, n=3, P=ns
  coefficient of variation (heart rate variability) at reperfusion: 3.3±1.1
[2]; reperfusion after 15 min total flow ischemia, n=3
  increase of coefficient of variation (heart rate variability) during reperfusion: 77%
[3]; DOX 3 * 10^−5 mM
  % change in MAP duration: 0.0%
  % change in QTc: −1.7 % change
  Cardiac rate: 200 Beats/min
  Cor flow: 14.6 mL/min
  LV dp/dt max: 1041 mmHg sec^−1
  LV dpdt (relax): −1022 mmHg sec^−1
  LV peak systolic pressure: 82 mmHg
  LVEDP: 5 mmHg
  MAP Duration: 143 ms
  QTcF: 237 ms
[3]; DOX 10^−5 mM
  % change in MAP duration: 0%
  % change in QTc: −2.1 % change
  Cardiac rate: 203 Beats/min
  Cor flow: 14 mL/min
  LV dp/dt max: 1238 mmHg sec^−1
  LV dpdt (relax): −1139 mmHg sec^−1
  LV peak systolic pressure: 94 mmHg
  LVEDP: 5 mmHg
  MAP Duration: 139 ms
  QTcF: 236 ms
[3]; dexrazoxane added to the doxorubicin perfusion
  LVEDP (effect in words): did not contribute
[3]; dexrazoxane added, both doxorubicin doses
  QTcF increase by doxorubicin (effect in words): reversed
[4]; 10 μM
  Ca^2+ transients, Peak amplitude (ΔF/F0): 5.2 ± 0.8 ΔF/F0
[4]; 30 μM
  Ca^2+ transients, Peak amplitude (ΔF/F0): 5.8 ± 1.0 ΔF/F0
[4]; 100 μM
  Ca^2+ transients, Peak amplitude (ΔF/F0): 5.1 ± 0.6 ΔF/F0
[4]
  calcium transients (effect in words): dose proportional increase
[5]; 10 μM
  APD50: 512 ± 47 ms
  APD90: 573 ± 43 ms
  Action potentials, Peak amplitude: 119 ± 2 mV
  Action potentials, Resting potential: −69 ± 0 mV
[5]; 30 μM
  APD50: 493 ± 36 ms
  APD90: 564 ± 33 ms
  Action potentials, Peak amplitude: 121 ± 2 mV
  Action potentials, Resting potential: −68 ± 2 mV
[5]; 100 μM
  APD50: 548 ± 45 ms
  APD90: 619 ± 39 ms
  Action potentials, Peak amplitude: 124 ± 1 mV
  Action potentials, Resting potential: −66 ± 1 mV
[5]
  action potential duration (effect in words): without inducing a change
[6]; 0.1 N HCl at 25° C., salt of hydrochloric acid
  solubility in 0.1 N HCl: 35 mg/mL
[6]; 0.1 N HCl
  solubility in 0.1 N HCl: sparingly soluble
[6]; 25° C.
  solubility in water: about 10 mg/ml
[6]
  solubility in non-polar, organic solvents: practically insoluble
[6]; ethanol and methanol
  solubility in polar solvents: slightly soluble
[7]
  stability of lyophilized drug without significant decomposition: ~12 months
[8]; 27 minutes
  amplitude of UCS / contraction (effect in words): did not significantly alter
[8]; 27 minutes, n=3, control 9.4±3.4 μm, P=ns
  peak amplitude of UCS, absolute cell shortening: 10.7±3.2 μm
[8]; n=3, control 8.5±2.7% RCL, P=ns
  UCS as percentage of resting cell length: 8.0±2.0 % RCL

## COc1cccc2c1C(=O)c1c(O)c3c(c(O)c1C2=O)C[C@@](O)(C(=O)CO)C[C@@H]3O[C@H]1C[C@H](N)[C@H](O)[C@H](C)O1 [Doxorubicin]
[3]; DOX 3 * 10^−5 mM
  % change in MAP duration: 13.3%
  % change in QTc: 11.9 % change
  Cardiac rate: 184 Beats/min
  Cor flow: 14.4 mL/min
  LV dp/dt max: 887 mmHg sec^−1
  LV dpdt (relax): −922 mmHg sec^−1
  LV peak systolic pressure: 93 mmHg
  LVEDP: 14 mmHg
  MAP Duration: 162 ms
  QTcF: 272 ms
[3]; DOX 10^−5 mM
  % change in MAP duration: 2.2%
  % change in QTc: 1.6 % change
  Cardiac rate: 217 Beats/min
  Cor flow: 13.4 mL/min
  LV dp/dt max: 1277 mmHg sec^−1
  LV dpdt (relax): −1173 mmHg sec^−1
  LV peak systolic pressure: 97 mmHg
  LVEDP: 7 mmHg
  MAP Duration: 142 ms
  QTcF: 247 ms
[3]; [9]
  LVEDP (effect in words): marked increase
  QTcF (effect in words): increased
[4]; 30 μM
  Ca^2+ transients, Peak amplitude (ΔF/F0): 3.0 ± 0.7 ΔF/F0
[4]; 100 μM
  Ca^2+ transients, Peak amplitude (ΔF/F0): 3.1 ± 0.5 ΔF/F0
[4]; 300 μM
  Ca^2+ transients, Peak amplitude (ΔF/F0): 1.6 ± 0.3 ΔF/F0
[4]
  calcium transients (effect in words): dose related decrease
[5]; 30 μM
  APD50: 553 ± 29 ms
  APD90: 626 ± 28 ms
  Action potentials, Peak amplitude: 120 ± 3 mV
  Action potentials, Resting potential: −70 ± 3 mV
[5]; 100 μM
  APD50: 646 ± 26 ms
  Action potentials, Peak amplitude: 119 ± 2 mV
  Action potentials, Resting potential: −68 ± 3 mV
[5]; 300 μM
  APD50: 536 ± 48 ms
  APD90: 611 ± 48 ms
  Action potentials, Peak amplitude: 122 ± 4 mV
  Action potentials, Resting potential: −69 ± 2 mV
[5]
  action potential duration (effect in words): profound prolongation
